{"source": "paper PMC10685318", "about": "“Trans-cyclosulfamidate mannose-configured cyclitol allows isoform-dependent inhibition of GH47 α-D-mannosidases through a bump–hole strategy” (Chemical Science, 2023)", "target": "T1, MAN2A2 (Homo sapiens, UniProt P49641)", "T1 construct": "expressed in transfected cells", "T1 sequence (P49641 1-1150)": "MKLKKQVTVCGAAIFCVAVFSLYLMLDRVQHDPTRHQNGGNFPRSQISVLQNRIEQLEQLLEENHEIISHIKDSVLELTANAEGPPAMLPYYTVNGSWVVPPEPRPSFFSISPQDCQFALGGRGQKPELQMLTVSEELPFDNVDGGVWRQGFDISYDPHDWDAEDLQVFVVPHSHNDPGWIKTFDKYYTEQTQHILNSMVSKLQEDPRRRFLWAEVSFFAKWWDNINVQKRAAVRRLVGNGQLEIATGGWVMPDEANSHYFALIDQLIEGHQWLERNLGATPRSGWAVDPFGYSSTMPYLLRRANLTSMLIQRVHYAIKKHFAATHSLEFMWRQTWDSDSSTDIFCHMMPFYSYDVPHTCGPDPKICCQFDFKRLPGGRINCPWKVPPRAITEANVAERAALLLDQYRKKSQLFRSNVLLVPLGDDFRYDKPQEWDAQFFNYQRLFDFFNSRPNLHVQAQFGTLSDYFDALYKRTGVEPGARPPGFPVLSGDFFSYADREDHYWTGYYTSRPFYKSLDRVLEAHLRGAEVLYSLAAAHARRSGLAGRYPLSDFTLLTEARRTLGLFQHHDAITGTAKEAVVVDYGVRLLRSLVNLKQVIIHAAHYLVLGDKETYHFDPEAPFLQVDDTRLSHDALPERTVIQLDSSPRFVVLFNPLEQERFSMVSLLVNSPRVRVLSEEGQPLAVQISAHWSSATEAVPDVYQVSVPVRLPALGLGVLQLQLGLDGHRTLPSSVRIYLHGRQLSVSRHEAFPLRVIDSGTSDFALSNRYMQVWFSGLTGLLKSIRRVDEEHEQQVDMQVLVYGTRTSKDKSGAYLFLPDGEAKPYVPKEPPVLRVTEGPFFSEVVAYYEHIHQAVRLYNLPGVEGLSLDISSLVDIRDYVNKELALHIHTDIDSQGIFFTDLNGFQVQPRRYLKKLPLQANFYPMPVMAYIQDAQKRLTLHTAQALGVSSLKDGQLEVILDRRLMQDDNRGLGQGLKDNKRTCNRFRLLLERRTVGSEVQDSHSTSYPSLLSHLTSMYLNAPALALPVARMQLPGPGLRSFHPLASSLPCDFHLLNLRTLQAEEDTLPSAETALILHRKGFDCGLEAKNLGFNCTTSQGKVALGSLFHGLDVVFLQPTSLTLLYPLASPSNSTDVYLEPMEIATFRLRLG", "experiment": "4-MU-α-man activity assay in overexpressed cell lysates", "assay_type": "biochemical"}
{"smiles": "O=S1(=O)N[C@@H]2[C@@H](O)[C@@H](O)[C@H](O)[C@@H](CO)[C@H]2O1", "note": "[compound 6, 1,6-trans-manno-cyclosulfamidate]", "values": [{"measurement": "activity when the buffer was enriched with CoCl2", "setting": "CoCl2", "result": "no activity"}, {"measurement": "IC50", "setting": "Zn2+", "result": "> 1000", "unit": "µM"}]}
